Each block holds one compound with its values, some of them ahead of it.
How the values were obtained:
[1] = target: T1, Human recombinant Vanin-1 (VNN1) (Homo sapiens, UniProt O95497); assay: Vanin-1 enzymatic assay (fluorescence intensity, Pantothenate-AMC substrate); assay type: biochemical; settings: purified recombinant human Vanin-1 0.5 nM; 30 min preincubation at 30° C.; Pantothenate-AMC 30 μM, 60 min
T1 construct: purchased Sino Biological Inc. 11662-H08H
T1 sequence (O95497 22-491): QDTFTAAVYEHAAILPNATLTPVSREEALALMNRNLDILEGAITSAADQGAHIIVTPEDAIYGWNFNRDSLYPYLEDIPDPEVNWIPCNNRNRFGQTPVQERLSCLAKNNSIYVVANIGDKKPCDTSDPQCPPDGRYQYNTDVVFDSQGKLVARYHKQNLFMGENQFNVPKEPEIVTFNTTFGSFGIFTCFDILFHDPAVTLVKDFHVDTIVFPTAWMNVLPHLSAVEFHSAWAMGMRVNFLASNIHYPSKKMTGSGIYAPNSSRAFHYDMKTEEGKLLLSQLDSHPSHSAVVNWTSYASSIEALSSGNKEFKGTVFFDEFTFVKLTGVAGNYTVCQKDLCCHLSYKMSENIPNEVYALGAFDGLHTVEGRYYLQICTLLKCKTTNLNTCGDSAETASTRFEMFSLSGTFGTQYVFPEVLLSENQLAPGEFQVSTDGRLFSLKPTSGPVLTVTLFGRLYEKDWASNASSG
Method: Human recombinant Vanin-1 (VNN1) was purchased from Sino Biological Inc. (Catalog Number: 11662-H08H).
Measurement of VNN1 inhibition is performed in 384-well format based on fluorescence intensity assay. Purified recombinant human Vanin-1 (0.5 nM) and threefold serial diluted compounds in 3% DMSO (range of concentrations from 30 μM to 1.524 nM) or controls (3.0% DMSO) are incubated for 30 minutes at 30° C. with gentle agitation in assay buffer containing 100 mM potassium Phosphate Buffer (KPi), pH 7.5, 0.001% Bovine Serum Albumin (BSA), 0.5 mM dithiothreitol (DTT) and 0.0025% Brij-35. The reaction is initiated by the addition of the fluorogenic substrate, Pantothenate-AMC, at a concentration of 30 μM. After 60 minutes of incubation at 30° C. with gentle agitation, fluorescence intensity is measured at λex=350 nm and λem=450 nm with a fluorescence reader (BMG PHERAstar reader or equivalent).

[2] = target: T2, Vanin-1 in SUIT-S2 cell line (Homo sapiens, UniProt O95497); assay: Vanin-1 cell-based mechanistic assay (fluorescence intensity, Pantothenate-AMC substrate); settings: 40000 cells per well, 2 hours incubation at 37° C., Pantothenate-AMC 30 μM, 30 min
T2 construct: endogenous in cells; host or cells: SUIT-S2 cell line (ATCC # CRL1596)
T2 sequence (O95497 22-491): T1 sequence (O95497 22-491)
Method: Vanin-1 Cell-Based Mechanistic Assay:
The cellular activity of the examples is measured in 96-well format based on fluorescence intensity assay using SUIT-S2 cell line (ATCC # CRL1596).
Cells are cultured at 37° C. with 5% CO2 to 80-90% confluence and then washed once with phosphate-buffered saline (PBS). Adherent cells are detached with PBS-EDTA and once in suspension 40000 cells are dispensed in 90 μl of PBS in 96-well black plates with clear bottoms. Threefold serial dilutions of test compounds are made in DMSO and then solubilized in PBS, dilution range 1:30. Cells and serial diluted test compounds (final concentrations 10 μM to 4.6 nM) or controls (PBS/0.3% DMSO) are incubated for 2 hours at 37° C. with 5% CO2. The reaction is initiated by the addition of the fluorogenic substrate, Pantothenate-AMC, at a concentration of 30 μM. After 30 minutes of incubation at 30° C. with gentle agitation, fluorescence intensity is measured at λex=350 nm and λem=450 nm with a fluorescence reader (BMG PHERAstar reader or equivalent).

Compound: CC(C)(CO)[C@@H](O)C(=O)NCCC(=O)C(=O)NCc1cccc(OCCNS(C)(=O)=O)c1 [Example 26, (R)-2,4-Dihydroxy-N-{3-[3-(2-methanesulfonylamino-ethoxy)-benzylcarbamoyl]-3-oxo-propyl}-3,3-dimethyl-butyramide]
IC50 [1]: 380 nM | IC50 [2]: 260 nM

Compound: CC(C)(CO)[C@@H](O)C(=O)NCCC(=O)C(=O)NCc1ccc(S(C)(=O)=O)cc1 [Example 24, (R)-2,4-Dihydroxy-N-[3-(4-methanesulfonyl-benzylcarbamoyl)-3-oxo-propyl]-3,3-dimethyl-butyramide]
IC50 [1]: 10 nM | IC50 [2]: < 10 nM

Compound: CC(C)(CO)[C@@H](O)C(=O)NCCC(=O)/C=C/Cc1ccccc1 [Example 4, (R)-2,4-Dihydroxy-3,3-dimethyl-N-((E)-3-oxo-6-phenyl-hex-4-enyl)-butyramide]
IC50 [1]: 2010 nM | IC50 [2]: 1190 nM

Compound: CC(C)(CO)[C@@H](O)C(=O)NCCN(CCOc1ccc(C#N)cc1)C(=O)CCl [Example 61, (R)—N-(2-{(2-Chloro-acetyl)-[2-(4-cyano-phenoxy)-ethyl]-amino}-ethyl)-2,4-dihydroxy-3,3-dimethyl-butyramide]
IC50 [1]: 3280 nM | IC50 [2]: 220 nM

Compound: CC(C)(CO)[C@@H](O)C(=O)NCCC(=O)C(=O)NCc1cccc(OC(F)(F)F)c1 [Example 15, (R)-2,4-Dihydroxy-3,3-dimethyl-N-[3-oxo-3-(3-trifluoromethoxy-benzylcarbamoyl)-propyl]-butyramide]
IC50 [1]: 50 nM | IC50 [2]: 140 nM

Compound: CC(C)(CO)[C@@H](O)C(=O)NCCC(=O)C(=O)NCc1ccc(F)cc1 [Example 17, (R)—N-[3-(4-Fluoro-benzylcarbamoyl)-3-oxo-propyl]-2,4-dihydroxy-3,3-dimethyl-butyramide]
IC50 [1]: 30 nM | IC50 [2]: 20 nM

Compound: CC(C)(CO)[C@@H](O)C(=O)NCCN(Cc1ccccc1)C(=O)CCl [Example 60, (R)—N-{2-[Benzyl-(2-chloro-acetyl)-amino]-ethyl}-2,4-dihydroxy-3,3-dimethyl-butyramide]
IC50 [1]: 3570 nM | IC50 [2]: 600 nM

Continued, values first:

IC50 [1]: 2480 nM | IC50 [2]: 220 nM
Compound: CC(C)(CO)[C@@H](O)C(=O)NCCN(CCCc1ccccc1)C(=O)CCl [Example 58, (R)—N-{2-[(2-Chloro-acetyl)-(3-phenyl-propyl)-amino]-ethyl}-2,4-dihydroxy-3,3-dimethyl-butyramide]

IC50 [1]: 5790 nM | IC50 [2]: 670 nM
Compound: CC(C)(CO)[C@@H](O)C(=O)NCC/C=C/C(=O)CCc1ccccc1 [Example 6]

IC50 [1]: 9250 nM | IC50 [2]: 1270 nM
Compound: C=CC(=O)CCNC(=O)[C@H](O)C(C)(C)CO [Example 3, (R)-2,4-Dihydroxy-3,3-dimethyl-N-(3-oxo-pent-4-enyl)-butyramide]

IC50 [1]: 30 nM | IC50 [2]: 25 nM
Compound: CC(C)(CO)[C@@H](O)C(=O)NCCC(=O)C(=O)NCc1ccccc1F [Example 10, (R)—N-[3-(2-Fluoro-benzylcarbamoyl)-3-oxo-propyl]-2,4-dihydroxy-3,3-dimethyl-butyramide]

IC50 [1]: 3310 nM | IC50 [2]: 3200 nM
Compound: CC(=O)/C=C/CCNC(=O)[C@H](O)C(C)(C)CO [Example 5, (R)-2,4-Dihydroxy-3,3-dimethyl-N-((E)-5-oxo-hex-3-enyl)-butyramide]

IC50 [1]: < 10 nM | IC50 [2]: < 10 nM
Compound: CC(C)(CO)[C@@H](O)C(=O)NCCC(=O)C(=O)NCc1ccc(C(=O)NCCc2ccc(Oc3ccccc3)cc2)cc1 [Example 32, 4-{[4-((R)-2,4-Dihydroxy-3,3-dimethyl-butrylamino)-2-oxo-butyrylamino]-methyl)-N-[2-(4-phenoxy-phenyl)-ethyl]-benzamide]
